Values after ≈ are worked out from the molar mass of the structure shown.
Legend:
[1] = system: yeasts Saccharomyces cerevisiae, Candida albicans, Candida krusei and Candida glabrata; test: Fungal growth inhibition; assay type: cell-based; details: species not given; for MIC: antifungal activity
Description: (§1) Fungal isolates were purchased from American Type Culture Collection, except for C. glabrata strain Cg003, which was kindly provided by Julius Subik, Comenius University in Bratislava, Slovak Republic. Cg003 is a clinical isolate, characterized to be resistant to fluconazole and itraconazole due to overexpression of the multidrug resistance efflux pumps Cdr1p and Cdr2p. Saccharomyces cerevisiae (ATCC 9763), Candida albicans (ATCC 90028), Candida albicans (SC5314), Candida glabrata (ATCC 90030), Candida glabrata (Cg003) and Candida krusei (ATCC 6258) were grown in Sabouraud broth (40 g/L D-glucose, 10 g/L peptone, pH 5.6) or YPD (10 g/L yeast extract, 20 g/L Bacto-peptone, 20 g/L glucose) medium to mid log phase, aliquoted into 20% (v/v) glycerol and cryopreserved as stocks at -80°C. For each growth assay, cells from these stocks were diluted in sterile water to OD600 = 0.025, which corresponds to a final starting inoculum of 0.5–2.5 x 10^5 CFU/mL. Growth assays were carried out by pipetting 3 μL compound dissolved in DMSO, 100 μL cell suspension and 97 μL 2 x RPMI media (20.8 g/L RPMI-1640 (Sigma-Aldrich catalog number R6504) 330 mM MOPS, 36 g/L glucose) into a microtiter plate and incubating for 24 h at 34°C, followed by OD measurement at 490 nm. The minimum inhibitory concentration (MIC) was defined as 50% growth inhibition of the microorganism as this measurement best represented the antifungal activity of the compounds. Standard errors were typically below 5%.

[2] = system: S. cerevisiae cells; test: Membrane potential study (DiBAC4(3)); assay type: cell-based, Saccharomyces cerevisiae; details: 10 μM, 30 minutes exposure, compared to DMSO
Description: S. cerevisiae cells were grown to mid-log phase, pelleted at 2,000 x g for 2 minutes and washed twice in buffer A (100 mM MOPS and 1 mM KCl adjusted with Trizma base to pH 7.0). Cells were then resuspended in buffer A to an OD600 of 0.2. For each well 50 μL of buffer A with 3.3 μg/mL propidium iodide (PI) (Thermo Fisher Scientific, catalog number P1304MP) and 1 μg/mL DiBAC4(3) (Sigma-Aldrich, catalog number D8189)) was mixed with 50 μL S. cerevisiae cell suspension and transferred to a 96 well plate containing 1 μL of inhibitor (in DMSO). A lysis control was performed with Reagent Y100 (ChemoMetec). Five thousand cells were measured per experiment with an exposure time of 1000 ms using a NucleoCounter NC-3000 (ChemoMetec). Dark field was used as the masking channel to select the yeast cells, and the DiBAC4(3) ([…]) and PI (ex 630 nm, em 740/60 nm) channels were used to measure the membrane potential and membrane integrity, respectively. Only cells with a pixel size of 10–40 were included in the analysis, to avoid analysis of non-cell artifacts.

[3] = system: Candida krusei ATCC 6258; test: Fungal growth inhibition, C. krusei; assay type: cell-based; details: Pichia kudriavzevii, ATCC6258; MIC defined as 50% growth inhibition, 24 h, n = 3–6
Description: as §1

[4] = system: C. albicans (SC5314) cells; test: Time-kill assay; assay type: cell-based, Candida albicans; details: for Reduction in CFU after 3 h exposure: 20 μM, compared to DMSO treated controls; for Fungicidal or fungistatic activity in time-kill (in words): AMB 0.54 μM, VRC 2.8 μM, 6 and 8 20 μM
Description: C. albicans (SC5314) cells (1 x 10^5 CFU/mL) were incubated in 10 mL RPMI-1640 media at 30°C with gentle agitation (150 rpm) in the presence of amphotericin B (0.5 μM), voriconazole (2.8 μM) or tetrahydrocarbazole compound (20 μM). At the indicated time points (0, 3, 6, and 24 h), a 100 μL aliquot was removed, serially diluted (10 fold) in saline (0.9% NaCl), and 30 μL aliquots were spread on YPD agar. CFU were counted after incubation at 30°C for 48 h. C. albicans cells treated with DMSO (1%, v/v) served as a control. 50 CFU/mL was selected as the lower limit of quantitation.

[5] = system: C. albicans cells; test: Post-antifungal effect determination; assay type: cell-based, Candida albicans; details: 1 h exposure of C. albicans; AMB 0.54 μM, VRC 2.8 μM, 6 and 8 20 μM
Description: The post-antifungal effect (PAFE) of antifungal drugs on C. albicans was determined as described by others, with modifications. Briefly, 2 × 10^6 CFU/mL C. albicans cells were incubated in 1 mL RPMI-1640 media for 1 h at 30°C with gentle agitation in the presence of amphotericin B (0.54 μM), voriconazole (2.8 μM) or tetrahydrocarbazole compound (20 μM). Cells were subsequently washed in RPMI media 3 times by centrifugation (3 minutes, 5,000 x g) and finally re-suspended in 1 mL fresh RPMI medium and incubated at 30°C for 24 h. At various time intervals, a 100 μL aliquot was removed, serially diluted (10-fold) in saline (0.9% NaCl), and 30 μL aliquots were spread on YPD agar. The agar plates were incubated at 30°C for 48 h and the number of CFU/mL of culture was determined. C. albicans cells treated with DMSO (1%, v/v) served as a control. The number of CFU/mL obtained at specified time intervals was plotted against time (h) following compound removal. An increase in the CFU/mL of culture signifies growth and multiplication of yeast cells. The duration required for the antifungal drug-treated cells to recover from the inhibitory effect of the drug as indicated by an increase in CFU/mL of culture is defined as the PAFE.

| SMILES | DiBAC4(3) fluorescence signal, membrane depolarization (in words) [2] | MIC [3] [µM] | also measured |
| --- | --- | --- | --- |
| NC1CCCc2c1[nH]c1cc(OC(F)(F)F)ccc21 (stereo not shown) [Compound 4] | No significant differences | 66 ± 16 (≈ 17.8 µg/mL) | Antifungal activity (in words) [1]: weak antifungal activity |
| CN1CCC(NC2CCCc3c2[nH]c2cc(OC(F)(F)F)ccc32)CC1 (stereo not shown) [Compound 5] | No significant differences | 150 (≈ 55.1 µg/mL) | Antifungal activity (in words) [1]: weak antifungal activity |
| FC(F)(F)Oc1ccc2c3c([nH]c2c1)C(NCc1ccc(Cl)cc1)CCC3 (stereo not shown) [Compound 6] | – | 7.5 (≈ 2.96 µg/mL) | Reduction in CFU after 3 h exposure [4]: > 99%; Fungicidal or fungistatic activity in time-kill (in words) [4]: fungistatic activity after 24 h of incubation; Post-antifungal effect (PAFE) [5]: 5 h |
| FC(F)(F)Oc1ccc2c3c([nH]c2c1)C(NCc1ccc(Br)cc1)CCC3 (stereo not shown) [Compound 7] | – | 4.7 (≈ 2.06 µg/mL) | – |
| FC(F)(F)Oc1ccc2c3c([nH]c2c1)C(NCCOc1ccc(Cl)cc1)CCC3 (stereo not shown) [Compound 8] | – | 12.9 ± 9.4 (≈ 5.48 µg/mL) | Reduction in CFU after 3 h exposure [4]: > 99%; Fungicidal or fungistatic activity in time-kill (in words) [4]: fungistatic activity after 24 h of incubation; Post-antifungal effect (PAFE) [5]: 5 h |
| FC(F)(F)Oc1ccc2[nH]c3c(c2c1)CCCC3NCc1ccc(-c2ccccn2)cc1 (stereo not shown) [Compound 9] | – | 7.5 ± 4.8 (≈ 3.28 µg/mL) | – |
| Clc1ccc2[nH]c3c(c2c1)CCCC3NCc1ccc(-c2ccccc2)cc1 (stereo not shown) [Compound 10] | slight increase | 6.8 ± 4.6 (≈ 2.63 µg/mL) | – |
| Cn1c2c(c3cc(Cl)ccc31)CCCC2NCc1ccc(-c2ccccc2)cc1 (stereo not shown) [Compound 11] | – | > 20 | MIC [1]: > 20 µM |
| CN(Cc1ccc(-c2ccccc2)cc1)C1CCCc2c1[nH]c1ccc(Cl)cc21 (stereo not shown) [Compound 12] | – | > 20 | MIC [1]: > 20 µM |

— publication PMC5749684, “Tetrahydrocarbazoles are a novel class of potent P-type ATPase inhibitors with antifungal activity” (PLoS ONE, 2018)
